Experimental data as given in article PMC9504842, “Comprehensive Metabolic Profiling of Euphorbiasteroid in Rats by Integrating UPLC-Q/TOF-MS and NMR as Well as Microbial Biotransformation” (Metabolites, 2022).

Experiments:
[1] = test system: LO2 cells; assay: CCK-8 cell cytotoxicity assay, LO2; assay type: cell-based; settings: Homo sapiens, L02, 72 h, read-out: IC50 (μM) LO2
Protocol: (§1) Cell cytotoxicity was determined by the CCK-8 assay. Four strains of human cells (SH-SY5Y) were seeded in 96-well plates at a density of 3 × 10^3 cells/well under 37 °C and 5% CO2 for 12 h and subsequently treated with the test sample solution (euphorbiasteroid and its metabolites, 10 μL) for 72 h. After treatment, each well with 10 μL CCK-8 reagent was incubated for 1–2 h in the incubator. Afterwards, the optical OD-value was measured at 450 nm through a microplate reader. Three multiple wells were set as parallel experimental groups.
(§2) Euphorbiasteroid and its metabolites were tested for their cytotoxicity on human cell lines SH-SY5Y, LO2, AC-16, and HK-2 by the CCK-8 assay. […] Therefore, considering the high content of euphorbiasteroid in Euphorbiae semen, it was speculated that the metabolites from hydroxylation and hydrolysis might be the potential toxic constituents of Euphorbiae semen.

[2] = test system: HK-2 cells; assay: CCK-8 cell cytotoxicity assay, HK-2; assay type: cell-based; settings: Homo sapiens, HK-2, 72 h, read-out: IC50 (μM) HK-2
Protocol: as §1, §2

[3] = test system: SH-SY5Y neuroblastoma cells; assay: CCK-8 cell cytotoxicity assay, SH-SY5Y; assay type: cell-based; settings: Homo sapiens, 72 h, read-out: IC50 (μM) SH-SY5Y
Protocol: as §1, §2

[4] = test system: AC-16 cells; assay: CCK-8 cell cytotoxicity assay, AC-16; assay type: cell-based; settings: Homo sapiens, 72 h, read-out: IC50 (μM) AC-16
Protocol: as §1, §2

[5] = test system: Cunninghamella elegans bio-110930; assay: Microbial transformation of euphorbiasteroid, metabolite detection; settings: C. elegans bio-110930 culture with euphorbiasteroid
Protocol: The biotransformation process was conducted at two scales: preliminary screening and preparative. Preliminary screening scale biotransformation of euphorbiasteroid was carried out in 250 mL Erlenmeyer flasks containing 100 mL of liquid medium. The flasks were placed on a rotary shaker (160 rpm, 28 °C). A standard two-stage fermentation protocol was employed in all experiments. After 2 days of pre-culture, the substrates of 5 mg (dissolved in 0.5 mL of acetone) were added into each flask. Taking 1 mL samples on days 0, 2, 4, 7, 10, and 14, samples were centrifuged and the degree of transformation was compared to controls on TLC and HPLC, and a 2-μL aliquot of the supernatant was directly injected into the UPLC-Q-TOF-MS system. Culture controls consisted of sterile medium, in which microorganisms were grown under identical conditions without substrate. Substrate controls were composed of sterile medium and the same amount of substrate incubated under the same conditions without microorganisms.
(§3) First, the metabolites of euphorbiasteroid in rats (plasma, urine, and feces), RLMs, and C. elegans culture medium were predicted by setting the prototype components and potential biological metabolic reactions in UNIFI 4.1 software. Then, the predicted metabolites in each sample were further compared according to the characteristic mass spectrum behaviors (including parent ions, internal cleavage in the ion source, and characteristic fragment ions of each metabolite) and retention times.

[6] = In vitro incubation of euphorbiasteroid with rat liver microsomes, metabolite detection; assay type: in vitro ADME; settings: 37 °C, 1 h, NADPH regenerating system
Protocol: The microsomal incubation approach was based on previous metabolism studies published by Wintermeyer et al. and Franziska et al.. A 200 μL incubation system containing 10 μL of solution A, 2 μL of solution B, 5 μL of rat liver microsomes (20 mg/mL) and 182 μL 0.1 M PBS buffer (pH = 7.4) was constructed. The above solution was heated in a 37 °C water bath, then 1 μL of euphorbiasteroid (dissolved in DMSO solution, 10 mM) was used to start the reaction, and the mixture was then incubated at 37 °C for 1 h. The reactions were terminated by the addition of 200 μL of ice-cold acetonitrile. The mixture was then centrifuged at 13,000 rpm for 10 min, and a 2-μL aliquot of the supernatant was directly injected into the UPLC-Q-TOF-MS system.
as §3

[7] = Metabolite detection in rats (plasma, urine, feces) after oral euphorbiasteroid by UPLC-Q/TOF-MS; assay type: in vivo, Sprague-Dawley rats; settings: single oral dose 100 mg/kg euphorbiasteroid
Protocol: For metabolite separation and detection, chromatographic analyses were performed using a Waters Acquity UPLC I-class system (Waters, Milford, MA, USA), equipped with an auto-sampler, a binary solvent delivery system, an online degasser, and a photodiode array detector. An ACQUITY UPLC® HSS T3 column (2.1 × 150 mm, 1.8 μm, Waters) protected with a HSS T3 VanGuard ™ Pre-Column 3/Pk (2.1 × 5.0 mm, 1.8 μm, Waters) was used. The optimized parameters were set as follows: the mobile phase consisted of eluent A (0.1% formic acid in water, v/v) and eluent B (acetonitrile). The flow rate was 0.3 mL/min. The column and auto-sampler temperatures were maintained at 40 °C and 4 °C, respectively. The gradient elution program was optimized as follows: 0–9 min, 30–70% B; 9–13 min, 70–90% B; 13–17 min, 90–100% B; 17–20 min, 100–100% B.
The mass spectrometry detection was performed on the SYNAPT G2-Si HDMS system, equipped with an electrospray ionization (ESI) source (Waters Corp., Manchester, UK). A positive ion mode was conducted in this analysis. Mass spectrometry conditions were finally set as follows: capillary voltage of 3.0 kV, cone voltage of 40 V, source temperature of 120 °C, and de-solvation temperature of 400 °C. Nitrogen was used as the desolvation and cone gas with a flow rate of 800 and 50 L/h, respectively, and the full-scan mass range was set as m/z 50–1500 Da. In the auto mass spectrometry mode, the collision-induced dissociation energies were set at 0 eV for the precursor ion at the low-energy mode, and the collision-induced dissociation energies were set from 2 to 10 eV for the high-energy mode. Real-time data were calibrated using an external reference (LockSpray™) at a concentration of 0.2 ng/mL with an infusion flow rate of 5 μL/min, generating a reference ion for the positive ion mode (m/z 556.2771) during the UPLC-MS analysis. Data were acquired and processed using MassLynx ™ NT 4.1 software (Waters, Milford, MA, USA).
Male Sprague-Dawley rats (200–220 g) were commercially supplied by Shanghai Sippr-BK Laboratory Animal Co., Ltd. (Shanghai, China) and were housed in a humidity- and temperature-controlled room (50 ± 10% and 22–24 °C) with a 12-h light/dark cycle. The experimental rats were allowed to access food and water ad libitum and acclimatized to the conditions mentioned above for a week, then fasted overnight but with free access to water before the experiments. Euphorbiasteroid was dissolved in soybean oil solution (containing 0.5% ethanol) to form a concentration of 10 mg/mL. A single dose of 100 mg/kg euphorbiasteroid was orally administered to rats and the same concentration of soybean oil solution (containing 0.5% ethanol) was administered as a blank control. All animal procedures were performed in accordance with the Guidelines for Care and Use of Laboratory Animals of Naval Medical University and approved by the Animal Ethics Committee of Naval Medical University.
Blood samples (0.5 mL) were collected from six rats through the orbital sinus before administration (blank sample) and 0.25, 0.5, 1, 2, 4, 6, and 12 h after administration. Plasma samples were prepared by centrifugation at 4000 rpm for 10 min. For urine and feces sampling, 12 rats were divided into an administration group and a blank group, and were placed separately in stainless steel metabolic cages. Urine and feces samples were collected in containers surrounded by ice over 0–6, 6–12, and 12–24 h after drug administration. The mixed urine samples were centrifuged at 4000 rpm for 10 min at 4 °C to obtain the supernatants, and fecal samples were left in a cool and dry place until dry. All the biological samples were frozen at −80 °C before analysis.
An aliquot of 200 µL of plasma and urine samples was put in a 1.5 mL tube, respectively. 800 µL of acetonitrile was added and vortexed for 5 min to extract metabolites. Feces samples (1.0 g) were crushed and then ultrasonically extracted with acetonitrile (10 mL) for 30 min. […]

CC(=O)OC1C2C(OC(=O)Cc3ccccc3)C(C)CC2(OC(C)=O)C(=O)C(C)=CC2C(CCC13CO3)C2(C)C (centres unmarked) [Compound M0, Euphorbiasteroid]
55 ± 1.2 µM: IC50 [3]
97.7 ± 2.13 µM: IC50 [4]
> 100 µM: IC50 [1] | IC50 [2]

CC(=O)OC1C2C(OC(=O)Cc3ccccc3)C(C)CC2(OC(C)=O)C(=O)C(C)=CC2C(CCC13CO3)C2(C)CO (stereo not drawn) [Compound M1, 18α-hydroxyl euphorbiasteroid]
√: Distribution Fungi (metabolite detected) [5] | Distribution RLMs (metabolite detected) [6] | Distribution Rat Faeces (metabolite detected) [7] | Distribution Rat Plasma (metabolite detected) [7] | Distribution Rat Urine (metabolite detected) [7]

CC(=O)OC1C2C(OC(=O)Cc3ccc(O)cc3)C(C)CC2(OC(C)=O)C(=O)C(C)=CC2C(CCC13CO3)C2(C)C (centres unmarked) [Compound M2, 4′-hydroxyl euphorbiasteroid]
√: Distribution Fungi (metabolite detected) [5] | Distribution RLMs (metabolite detected) [6] | Distribution Rat Faeces (metabolite detected) [7] | Distribution Rat Urine (metabolite detected) [7]

CC(=O)OC1C2C(OC(=O)C(O)c3ccccc3)C(C)CC2(OC(C)=O)C(=O)C(C)=CC2C(CCC13CO3)C2(C)C (centres unmarked) [Compound M4, 7′-hydroxyl euphorbiasteroid]
√: Distribution Fungi (metabolite detected) [5] | Distribution RLMs (metabolite detected) [6] | Distribution Rat Faeces (metabolite detected) [7] | Distribution Rat Plasma (metabolite detected) [7] | Distribution Rat Urine (metabolite detected) [7]

CC(=O)OC1C2C(OC(=O)Cc3ccccc3O)C(C)CC2(OC(C)=O)C(=O)C(C)=CC2C(CCC13CO3)C2(C)C (centres unmarked) [Compound M5, 2′-hydroxyl euphorbiasteroid]
√: Distribution Fungi (metabolite detected) [5] | Distribution RLMs (metabolite detected) [6] | Distribution Rat Faeces (metabolite detected) [7] | Distribution Rat Plasma (metabolite detected) [7]

CC(=O)OC1C2C(OC(=O)Cc3ccccc3)C(CO)CC2(OC(C)=O)C(=O)C(C)=CC2C(CCC13CO3)C2(C)C (centres unmarked) [Compound M6]
√: Distribution RLMs (metabolite detected) [6] | Distribution Rat Faeces (metabolite detected) [7] | Distribution Rat Plasma (metabolite detected) [7]

CC(=O)OC1C2C(OC(=O)Cc3ccccc3O)C(C)CC2(OC(C)=O)C(=O)C(C)=CC2C(CCC13CO3)C2(C)CO (stereo not drawn) [Compound M8, 18α,2′-dihydroxyl euphorbiasteroid]
√: Distribution Fungi (metabolite detected) [5] | Distribution RLMs (metabolite detected) [6] | Distribution Rat Faeces (metabolite detected) [7] | Distribution Rat Plasma (metabolite detected) [7] | Distribution Rat Urine (metabolite detected) [7]

CC(=O)OC1C2C(OC(=O)CC3=CC=CC(O)C3O)C(C)CC2(OC(C)=O)C(=O)C(C)=CC2C(CCC13CO3)C2(C)C (centres unmarked) [Compound M12, 5′,6′-dihydroxyl dihydroeuphorbiasteroid]
√: Distribution Fungi (metabolite detected) [5] | Distribution RLMs (metabolite detected) [6] | Distribution Rat Faeces (metabolite detected) [7] | Distribution Rat Plasma (metabolite detected) [7]

CC(=O)OC1C2C(OC(=O)CC3=CC(O)C(O)C=C3)C(C)CC2(OC(C)=O)C(=O)C(C)=CC2C(CCC13CO3)C2(C)C (centres unmarked) [Compound M13, 3′,4′-dihydroxyl dihydroeuphorbiasteroid]
√: Distribution Fungi (metabolite detected) [5] | Distribution RLMs (metabolite detected) [6] | Distribution Rat Faeces (metabolite detected) [7] | Distribution Rat Plasma (metabolite detected) [7]

CC(=O)OC1C2C(OC(=O)Cc3ccccc3)C(C=O)CC2(OC(C)=O)C(=O)C(C)=CC2C(CCC13CO3)C2(C)C (centres unmarked) [Compound M14]
√: Distribution Fungi (metabolite detected) [5] | Distribution Rat Faeces (metabolite detected) [7] | Distribution Rat Plasma (metabolite detected) [7] | Distribution Rat Urine (metabolite detected) [7]

CC(=O)OC1C2C(OC(=O)Cc3ccccc3)C(C=O)CC2(OC(C)=O)C(=O)C(C)=CC2C(CCC13CO3)C2(C)C (centres unmarked) [Compound M15]
√: Distribution Rat Faeces (metabolite detected) [7] | Distribution Rat Plasma (metabolite detected) [7] | Distribution Rat Urine (metabolite detected) [7]

CC(=O)OC1C2C(OC(=O)Cc3ccccc3)C(C)CC2(OC(C)=O)C(=O)C(C)=CC2C(CCC13CO3)C2(C)C(=O)O (stereo not drawn) [Compound M16, 18α-carboxyl euphorbiasteroid]
√: Distribution Fungi (metabolite detected) [5] | Distribution RLMs (metabolite detected) [6] | Distribution Rat Faeces (metabolite detected) [7] | Distribution Rat Plasma (metabolite detected) [7] | Distribution Rat Urine (metabolite detected) [7]

CC(=O)OC1C2C(OC(=O)Cc3ccccc3)C(C(=O)O)CC2(OC(C)=O)C(=O)C(C)=CC2C(CCC13CO3)C2(C)C (centres unmarked) [Compound M17]
√: Distribution Fungi (metabolite detected) [5] | Distribution RLMs (metabolite detected) [6] | Distribution Rat Faeces (metabolite detected) [7] | Distribution Rat Plasma (metabolite detected) [7]

CC(=O)O[C@H]1[C@H]2[C@@H](OC(=O)Cc3ccccc3O[C@@H]3O[C@H](CO)[C@@H](O)[C@H](O)[C@H]3O)[C@@H](C)C[C@]2(OC(C)=O)C(=O)/C(C)=C/C2C(CC[C@@]13CO3)C2(C)C (some centres unmarked) [Compound M28]
√: Distribution Rat Faeces (metabolite detected) [7]

euphorbiasteroid 2′-O-β-D-glucopyranoside [Compound M29]
√: Distribution Fungi (metabolite detected) [5]
